# Assay: recombinant UMI read abundance after kanamycin selection (control-corrected) (log10(CPM+1)); higher = more efficient recombination; extreme values may be limits of the assay; sequences stand for … in AGTGCAGAGAAAATCGGCCAGTTTTCTCTGCCTGCAGTCCGCATGCCGTGGGACCCCTTGGGTTCTAACCTGTTGCCTAGATTTATGCAGCGGACTGCCTTTCTCCCAAAGTGATAAACCGG…AGGTTGGTTTCACT; site = the 11-nt donor
# In short: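 Values are reported as log10(CPM+1), obtained by converting sequencing counts to CPM, averaging replicates and scaling by control-derived factors. The counts came from recombinant UMIs amplified by PCR across the donor–target junction. These UMIs came from a pooled Escherichia coli screen of donor and donor-binding-loop pairs for the IS621 bridge recombinase, plated with IPTG (0.07 mM) plus kanamycin or left unselected, in two replicates each.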
# 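Further: IS621 bridge recombinase in Escherichia coli cells against a fixed T5 target plasmid.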
row,Sequence,recombinant UMI read abundance (log10)
1,CGCCCTACATGGACCGGTTTTCCCGGTAATCCGTATTTGAG (site CCCCCTACTCT),0.0131
2,CGCCCTACATGGACCGGTTTTCCCGGTAATCCGTATTTGAG (site CGCCCTACTCT),1.44
3,CGCCCTACATGGACCGGTTTTCCCGGTAATCCGTATTTGAG (site CTCCCTACTCT),0.0151
4,CGCCGCACATGGACCGGTTTTCCCGGTAATCCGTATTTGCT (site CGCCGAACTAG),0
5,CGCCGCACATGGACCGGTTTTCCCGGTAATCCGTATTTGCT (site CGCCGCACTAG),2.18
6,CGCCGCACATGGACCGGTTTTCCCGGTAATCCGTATTTGCT (site CGCCGGACTAG),0.00439
7,CGCCGCACATGGACCGGTTTTCCCGGTAATCCGTATTTGCT (site CGCCGTACTAG),0
8,CGCCGGACATGGACCGGTTTTCCCGGTAATCCGTATTTGCT (site CGCCGAACTAG),2.52
9,CGCCGGACATGGACCGGTTTTCCCGGTAATCCGTATTTGCT (site CGCCGCACTAG),0.00459
10,CGCCGGACATGGACCGGTTTTCCCGGTAATCCGTATTTGCT (site CGCCGGACTAG),1.82
11,CGCCGGACATGGACCGGTTTTCCCGGTAATCCGTATTTGCT (site CGCCGTACTAG),0
12,CGCCGTACATGGACCGGTTTTCCCGGTAATCCGTATTTGCT (site AGCCGTACTAG),0.192
13,CGCCGTACATGGACCGGTTTTCCCGGTAATCCGTATTTGCT (site CACCGTACTAG),0.33
14,CGCCGTACATGGACCGGTTTTCCCGGTAATCCGTATTTGCT (site CCCCGTACTAG),0.907
15,CGCCGTACATGGACCGGTTTTCCCGGTAATCCGTATTTGCT (site CGACGTACTAG),0.00883
16,CGCCGTACATGGACCGGTTTTCCCGGTAATCCGTATTTGCT (site CGCAGTACTAG),0.331
17,CGCCGTACATGGACCGGTTTTCCCGGTAATCCGTATTTGCT (site CGCCATACTAG),0.922
18,CGCCGTACATGGACCGGTTTTCCCGGTAATCCGTATTTGCT (site CGCCCTACTAG),0.301
19,CGCCGTACATGGACCGGTTTTCCCGGTAATCCGTATTTGCT (site CGCCGAACTAG),0
20,CGCCGTACATGGACCGGTTTTCCCGGTAATCCGTATTTGCT (site CGCCGCACTAG),0.796
21,CGCCGTACATGGACCGGTTTTCCCGGTAATCCGTATTTGCT (site CGCCGGACTAG),0
22,CGCCGTACATGGACCGGTTTTCCCGGTAATCCGTATTTGCT (site CGCCGTACTAA),0.0116
23,CGCCGTACATGGACCGGTTTTCCCGGTAATCCGTATTTGCT (site CGCCGTACTAC),0.00604
24,CGCCGTACATGGACCGGTTTTCCCGGTAATCCGTATTTGCT (site CGCCGTACTAG),1.59
25,CGCCGTACATGGACCGGTTTTCCCGGTAATCCGTATTTGCT (site CGCCGTACTAT),0.0196

row,Sequence,recombinant UMI read abundance (log10)
1,CGCCGTACATGGACCGGTTTTCCCGGTAATCCGTATTTGCT (site CGCCGTACTCG),0.111
2,CGCCGTACATGGACCGGTTTTCCCGGTAATCCGTATTTGCT (site CGCCGTACTGG),0
3,CGCCGTACATGGACCGGTTTTCCCGGTAATCCGTATTTGCT (site CGCCGTACTTG),0.00335
4,CGCCGTACATGGACCGGTTTTCCCGGTAATCCGTATTTGCT (site CGCCGTCCTAG),0
5,CGCCGTACATGGACCGGTTTTCCCGGTAATCCGTATTTGCT (site CGCCGTGCTAG),0.065
6,CGCCGTACATGGACCGGTTTTCCCGGTAATCCGTATTTGCT (site CGCCGTTCTAG),0
7,CGCCGTACATGGACCGGTTTTCCCGGTAATCCGTATTTGCT (site CGCCTTACTAG),0
8,CGCCGTACATGGACCGGTTTTCCCGGTAATCCGTATTTGCT (site CGCGGTACTAG),0
9,CGCCGTACATGGACCGGTTTTCCCGGTAATCCGTATTTGCT (site CGCTGTACTAG),0
10,CGCCGTACATGGACCGGTTTTCCCGGTAATCCGTATTTGCT (site CGGCGTACTAG),0.0034
11,CGCCGTACATGGACCGGTTTTCCCGGTAATCCGTATTTGCT (site CGTCGTACTAG),0
12,CGCCGTACATGGACCGGTTTTCCCGGTAATCCGTATTTGCT (site CTCCGTACTAG),0
13,CGCCGTACATGGACCGGTTTTCCCGGTAATCCGTATTTGCT (site GGCCGTACTAG),0.00569
14,CGCCGTACATGGACCGGTTTTCCCGGTAATCCGTATTTGCT (site TGCCGTACTAG),0.0708
15,CGCCGTACATGGACCGGTTTTCCCGGTAATCCGTATTTGTT (site CGCCGTACTAA),1.23
16,CGCCGTACATGGACCGGTTTTCCCGGTAATCCGTATTTGTT (site CGCCGTACTAC),0.00659
17,CGCCGTACATGGACCGGTTTTCCCGGTAATCCGTATTTGTT (site CGCCGTACTAG),0.486
18,CGCCGTACATGGACCGGTTTTCCCGGTAATCCGTATTTGTT (site CGCCGTACTAT),0.0268
19,CGCCGTGCATGGACCGGTTTTCCCGGTAATCCGTATTTGCT (site CGCCGTACTAG),1.29
20,CGCCGTGCATGGACCGGTTTTCCCGGTAATCCGTATTTGCT (site CGCCGTCCTAG),0.00563
21,CGCCGTGCATGGACCGGTTTTCCCGGTAATCCGTATTTGCT (site CGCCGTGCTAG),1.97
22,CGCCGTGCATGGACCGGTTTTCCCGGTAATCCGTATTTGCT (site CGCCGTTCTAG),0.0147
23,CGCCGTTCATGGACCGGTTTTCCCGGTAATCCGTATTTGCT (site CGCCGTACTAG),0
24,CGCCGTTCATGGACCGGTTTTCCCGGTAATCCGTATTTGCT (site CGCCGTCCTAG),0.00374
25,CGCCGTTCATGGACCGGTTTTCCCGGTAATCCGTATTTGCT (site CGCCGTGCTAG),0

row,Sequence,recombinant UMI read abundance (log10)
1,CGCCGTTCATGGACCGGTTTTCCCGGTAATCCGTATTTGCT (site CGCCGTTCTAG),2.41
2,CGCCTGACATGGACCGGTTTTCCCGGTAATCCGTATTTGAG (site CGCCTGACTCT),0.947
3,CGCGAGTCATGGACCGGTTTTCCCGGTAATCCGTATTTGCC (site CGAGAGTCTGG),0
4,CGCGAGTCATGGACCGGTTTTCCCGGTAATCCGTATTTGCC (site CGCGAGTCTGG),2.43
5,CGCGAGTCATGGACCGGTTTTCCCGGTAATCCGTATTTGCC (site CGGGAGTCTGG),0
6,CGCGAGTCATGGACCGGTTTTCCCGGTAATCCGTATTTGCC (site CGTGAGTCTGG),0.681
7,CGCGAGTCATGGACCGGTTTTCCCGGTAATCCGTATTTGTC (site CGCGAGTCTGA),2.8
8,CGCGGGACATGGACCGGTTTTCCCGGTAATCCGTATTTGGC (site CGCGGGACTGC),2.25
9,CGCTAGACATGGACCGGTTTTCCCGGTAATCCGTATTTGAG (site CGATAGACTCT),0.0154
10,CGCTAGACATGGACCGGTTTTCCCGGTAATCCGTATTTGAG (site CGCTAGACTCT),1.64
11,CGCTAGACATGGACCGGTTTTCCCGGTAATCCGTATTTGAG (site CGGTAGACTCT),0.181
12,CGCTAGACATGGACCGGTTTTCCCGGTAATCCGTATTTGAG (site CGTTAGACTCT),0.00455
13,CGCTCCTCATGGACCGGTTTTCCCGGTAATCCGTATTTGCC (site CACTCCTCTGG),2.35
14,CGCTCCTCATGGACCGGTTTTCCCGGTAATCCGTATTTGCC (site CCCTCCTCTGG),1.72
15,CGCTCCTCATGGACCGGTTTTCCCGGTAATCCGTATTTGCC (site CGCTCCTCTGG),3.14
16,CGCTCCTCATGGACCGGTTTTCCCGGTAATCCGTATTTGCC (site CTCTCCTCTGG),2.25
17,CGCTGTCCATGGACCGGTTTTCCCGGTAATCCGTATTTGCA (site CGCTGTCCTTG),0.989
18,CGCTGTGCATGGACCGGTTTTCCCGGTAATCCGTATTTGCA (site CGCTGTGCTTG),1.87
19,CGGAACACATGGACCGGTTTTCCCGGTAATCCGTATTTGCA (site AGGAAGACTTG),0.0118
20,CGGAACACATGGACCGGTTTTCCCGGTAATCCGTATTTGCA (site CGGAACACTTG),2.5
21,CGGAAGACATGGACCGGTTTTCCCGGTAATCCGTATTTGCC (site AGGAAGACTTG),0
22,CGGAAGACATGGACCGGTTTTCCCGGTAATCCGTATTTGCC (site CGGAAGACTGG),2.59
23,CGGAAGCCATGGACCGGTTTTCCCGGTAATCCGTATTTGTC (site CGGAAGCCTGA),0
24,CGGAAGCCATGGACCGGTTTTCCCGGTAATCCGTATTTGTC (site CGGAATCCTAA),0.00548
25,CGGAATACATGGACCGGTTTTCCCGGTAATCCGTATTTGTT (site CGGAATACTAA),2.18

# — the supplement of paper PMC11208160
